Key:
A431 cell = test: Cell Proliferation Inhibition EGFR Assay (SRB method); format: cell-based, homo sapient; settings: Homo sapiens, A-431; A431 cells, 72 hours exposure, Sulforhodamine B; read-out: IC50 (A431)
Description: The following in vitro assay may be used to determine the level of activity and effect of different compounds of the present invention on the proliferation inhibition (cell toxic) of […] growth factor receptor (EGFR) high expressing homo […] cancer cell-A431 cell. The cellular assay described here measure the compounds of their anti-angiogenesis and proliferation inhibition activity and effect through EGFR on the cancer cells in vitro. The effect and activity is represented by the IC50 value that kills the cancer cell. […] The homo […] highly express EGFR are chosen and seeded to 96-well cell culture plate at a suitable concentration (exp 5000 cells/ml medium). The cells then are cultured in carbon dioxide (CO2) incubator till when they confluence to about 85%. Then, the cell culture medium is replaced by fresh one with tested compounds added in it at serial concentrations (general 6 to 7 concentrations). Then the cells are put back to the culture and cultured for continuous 72 hours. 72 hours later, the cell exposed to compounds and control cell are assayed for their proliferation using Sulforhodamine B (SRB) method. Compounds IC50 on tested cells are calculated by the data of inhibition rates of serial concentrations of the tested compounds. • a. Dimethyl sulfoxide (Sinophma chemical reagent company, catalog No. T20050806) • b. A431 cells (Purchased from Institute of biochemistry and cell biology) • c. Falcon 100 mm cell culture plates (Baton Dickison Labware, Baton Dickison and company, • Catalog No. 18677) • d. coming 96-well culture cluster (Corning Incorporated, Catalog No. 3599) • e. Fisher Pipette (Fisher scientific, Catalog No. 03-692-164) • f. DMEM/F12 cell medium (Gibco, Catalog No. 12400-024) • g. Fetal bovine serum, origin from Australia (Gibco, Catalog No. 10099-141) • h. […] Sulforhodamine B (Sigma, Catalog No. 3520-42-1) • k. Acetic Acid (Sinophma chemical reagent company, Catalog No. T20060508) • l. Trichloroacetic Acid (Sinophma chemical reagent company, Catalog No. T20060305) • m. Tris base (Amresco, Catalog No. 0826) • n. Class II A/B3 Biological safety cabinet (ThermoForma Catalog No. HB0053 03) • o. Series II water jacketed CO2 incubator (ThermoForma Model: 3111) • p. Centrifuge (Fisher Scientific Marathon 8 k, Catalog No. 0027-02) • q. Novastar Plate reader (BMG Labtech, Catalog No. 700 0081) • r. Orbital Shaker (Qilinbeier, Catalog No. TS-1) Protocol: […] Growing seeded 96-well plates at 37° C., 5% CO2, till 85% confluence. • 4. Prepare compounds stock solution, using DMSO solve candidate compounds to a concentration of 20 mM. […] Use cell culture medium (in this case, DMEM/F12+10% FBS) to dilute the compounds solution prepared above. Each DMSO serial concentration compound solution is diluted by 20 times with culture medium by adding 5 μl DMSO compound solution to 95 μl culture medium, then mix well by vortex. This promise that the DMSO concentration at that the A431 cell will exposed to will not surpass 0.5%. • 6. […] Each well added 180 μl medium, then add 20 μl medium solution of tested compounds prepared at step 5 to each well. For control group cell, add 20 μl culture medium containing 0.5% pure DMSO. […] Each 96-well plate, we can test 3 compounds with a control cell group. • 7. Put the culture plates back to incubator, culture for 72 hours at 37° C., 5% CO2. • 8. 72 hours later, remove cultures from incubator into sterile work area. • 9. Prepare fixative (50% Trichloroacetic Acid-TCA) by adding reagent grade water to the TCA, fix the cells by gently layering […] of cold TCA solution on top of the growth medium. • 10. Incubate plates for 1 hour at 4° C. and then rinse with water several times to remove TCA, serum proteins, etc. Plates are air dried and stored until use. Bland background optical density is measured in wells incubated with growth medium without cells. • 11. Use 10% acetic acid solution to prepare 0.4% Sulforhodamine B solution. Add 50 μl sulforhodamine B solution to each well of 96-well plates. • 12. […]

HUVEC cell = test: Cell Proliferation Inhibition VEGF-R2 Assay (SRB method); format: cell-based, homo sapient; settings: Homo sapiens; HUVEC cells, 72 hours exposure, Sulforhodamine B; read-out: IC50 (VEGFR/HUVEC)
Description: The following in vitro assay may be used to determine the level of activity and effect of different compounds of the present invention on the proliferation inhibition (cell toxic) of endothelium growth factor receptor (VEGFR) high expressing homo […] cancer cell-HUVEC cell. The cellular assay described here measure the compounds of their anti-angiogenesis and proliferation inhibition activity and effect through […] on the cancer cells in vitro. The effect and activity is represented by the IC50 value that kills the cancer cell. […] The homo […] highly express […] are chosen and seeded to 96-well cell culture plate at a suitable concentration (exp 5000 cells/ml medium). The cells then are cultured in carbon dioxide (CO2) incubator till when they confluence to about 85%. Then, the cell culture medium is replaced by fresh one with tested compounds added in it at serial concentrations (general 6 to 7 concentrations). Then the cells are put back to the culture and cultured for continuous 72 hours. 72 hours later, the cell exposed to compounds and control cell are assayed for their proliferation using Sulforhodamine B (SRB) method. […] Dimethyl sulfoxide (Sinophma chemical reagent company, catalog No. T20050806) • b. HUVEC cells (Purchased from Institute of biochemistry and cell biology) • c. […] Acetic Acid (Sinophma chemical reagent company, Catalog No. T20060508) • l. Trichloroacetic Acid (Sinophma chemical reagent company, Catalog No. T20060305) • m. […] Class II A/B3 Biological safety cabinet (ThermoForma Catalog No. HB0053-03) • o. […] Centrifuge (Fisher Scientific Marathon 8 k, Catalog No. 0027-02) • q. Novastar Plate reader (BMG Labtech, Catalog No. 700-0081) • r. […] Growing seeded 96-well plates at 37° C., 5% CO2, till 85% confluence. • 4. Prepare compounds stock solution, using DMSO solve candidate compounds to a concentration of 20 mM. […] Use cell culture medium (in this case, DMEM/F12+10% FBS) to dilute the compounds solution prepared above. Each DMSO serial concentration compound solution is diluted by 20 times with culture medium by adding 5 μl DMSO compound solution to 95 μl culture medium, then mix well by vortex. […] After HUVEC cell has attached to the dish bottom and confluence about 85%, change the culture medium with fresh DMEM/F12 plus 10% FBS. Each well added 180 μl medium, then add 20 μl medium solution of tested compounds prepared at step 5 to each well. For control group cell, add 20 μl culture medium containing 0.5% pure DMSO. […] Each 96-well plate, we can test 3 compounds with a control cell group. • 7. Put the culture plates back to incubator, culture for 72 hours at 37° C., 5% CO2. • 8. 72 hours later, remove cultures from incubator into sterile work area. • 9. Prepare fixative (50% Trichloroacetic Acid-TCA) by adding reagent grade water to the TCA, fix the cells by gently layering 50 μl of cold TCA solution on top of the growth medium. • 10. Incubate plates for 1 hour at 4° C. and then rinse with water several times to remove TCA, serum proteins, etc. Plates are air dried and stored until use. Bland background optical density is measured in wells incubated with growth medium without cells. • 11. Use 10% acetic acid solution to prepare 0.4% Sulforhodamine B solution. Add 50 μl sulforhodamine B solution to each well of 96-well plates. • 12. Allow cells to stain for 30 minutes. • 13. Prepared the wash solution of […] acetic acid. At the end of the staining period, the stain is removed and the cells rinsed quickly with 1% acetic acid. Repeat until unincorporated dye is removed. Keep wash times to a minimum to reduce desorption of protein-bound dye. After being rinsed, the cultures are air dried until no moisture is visible. • 14. The incorporated dye is then solubilized in a volume of Sulforhodamine B assay Solubilization solution (10 mM Tris) equal to the original volume of culture medium. Allow cultures to stand for 5 minutes at room temperature.

| Structure (SMILES) | IC50 (A431 cell) | IC50 (HUVEC cell) |
| --- | --- | --- |
| CCN(CC)CCN1CCc2[nH]c(/C=C3\C(=O)Nc4c(N)cc(F)cc43)c(C)c2C1=O [Example 4] | 12.6 µM | 3.6 µM |
| CCN(CC)CCN1CCc2[nH]c(/C=C3\C(=O)Nc4ccc(NC=O)cc43)c(C)c2C1=O [Example 33, N-{3-[5-(2-Diethylamino-ethyl)-3-methyl-4-oxo-4,5,6,7-tetrahydro-1H-pyrrolo[3,2-c]pyridine-2-ylmethylene]-2-oxo-2,3-dihydro-1H-indol-5-yl}-formamide] | 0.84 µM | 0.67 µM |
| CCN(CC)CCN1CCc2[nH]c(/C=C3\C(=O)Nc4ccc(-c5ccc(OC)cc5)cc43)c(C)c2C1=O [Example 38, 5-(2-Diethylamino-ethyl)-2-[5-(4-methoxy-phenyl)-2-oxo-1,2-dihydro-indol-3-ylidenemethyl)-3-methyl-1,5,6,7-tetrahydro-pyrrolo[3,2-c]pyridin-4-one] | 3.89 µM | 1.28 µM |
| CCN(CC)CCN1CCc2[nH]c(/C=C3\C(=O)Nc4cc(N)c(F)cc43)c(C)c2C1=O [Example 7, 2-(6-Amino-5-fluoro-2-oxo-1,2-dihydro-indol-3-ylidenemethyl)-5-(2-diethylamino-ethyl)-3-methyl-1,5,6,7-tetrahydro-pyrrolo[3,2-c]pyridin-4-one] | 10.5 µM | 1.38 µM |
| CCN(CC)CCN1CCc2[nH]c(/C=C3\C(=O)Nc4cc(NC=O)c(F)cc43)c(C)c2C1=O [Example 8, N-{3-[5-(2-Diethylamino-ethyl)-3-methyl-4-oxo-4,5,6,7-tetrahydro-1H-pyrrolo[3,2-c]pyridine-2-ylmethylene]-5-fluoro-2-oxo-2,3-dihydro-1,1-indol-6-yl}-formamide] | 0.37 µM | 3.14 µM |
| CCN(CC)CCN1CCc2[nH]c(/C=C3\C(=O)Nc4cc(NC(C)=O)c(F)cc43)c(C)c2C1=O [Example 9, N-{3-[5-(2-Diethylamino-ethyl)-3-methyl-4-oxo-4,5,6,7-tetrahydro-pyrrolo[3,2-c]pyridine-2-ylmethylene]-5-fluoro-2-oxo-2,3-dihydro-1H-indol-6-yl}-acetamide] | 9.29 µM | 5.8 µM |
| COc1ccc2c(c1)/C(=C/c1[nH]c3c(c1C)C(=O)N(CCN1CCOCC1)CC3)C(=O)N2 [Example 45, 2-(5-Methoxy-2-oxo-1,2-dihydro-indol-3-ylidenemethyl)-3-methyl-5-(2-morpholin-4-yl-ethyl)-1,5,6,7-tetrahydro-pyrrolo[3,2-c]pyridin-4-one] |  | 1.15 µM |
| CCN(CC)CCN1CCc2[nH]c(/C=C3\C(=O)Nc4c(NC=O)cc(F)cc43)c(C)c2C1=O [Example 5, N-{3-[5-(2-Diethylamino-ethyl)-3-methyl-4-oxo-4,5,6,7-tetrahydro-1H-pyrrolo[3,2-c]pyridine-2-ylmethylene]-5-fluoro-2-oxo-2,3-dihydro-1H-indol-7-yl}-formamide] | 1.38 µM | 10.5 µM |
| O=C1Nc2ccc(Cl)cc2/C1=C/c1[nH]c2c(c1-c1ccc(F)cc1)C(=O)NCC2 [Example 58, 2-(5-Chloro-2-oxo-1,2-dihydro-indol-3-ylidenemethyl)-3-(4-fluoro-phenyl)-1,5,6,7-tetrahydro-pyrrolo[3,2-c]pyridin-4-one] |  | 3.99 µM |
| Cc1c(/C=C2\C(=O)Nc3cc(N)c(F)cc32)[nH]c2c1C(=O)N(CCN1CCCC1)CC2 [Example 14, 2-(6-Amino-5-fluoro-2-oxo-1,2-dihydro-indol-3-ylidenemethyl)-3-methyl-5-(2-pyrrolidin-1-yl-ethyl)-1,5,6,7-tetrahydro-pyrrolo[3,2-c]pyridin-4-one] | 10.7 µM | 1.05 µM |

From patent US8697692B2, “Pyrrolo [3,2-c] pyridine-4-one 2-indolinone protein kinase inhibitors” (Shanghai Hengrui Pharmaceutical Co., Ltd., priority 2006, dated 2014)
